Data reported in patent publication EP3442964B1, “NOVEL N-[(PYRIMIDINYLAMINO)PROPANYL]-AND N [(PYRAZINYLAMINO)PROPANYL]ARYLCARBOXAMIDES” (Boehringer Ingelheim International GmbH, priority 2016, dated 2017).
Where two headings read alike, the source gives them in different places.

How the values were obtained:
[1] = Assay C: metabolic stability in human liver microsomes (human MST); format: in vitro ADME; settings: pooled human liver microsomes, pH 7.6, 1 µM test compound, 37°C
From the text: Stability in human liver microsomes refers to the susceptibility of compounds to biotransformation in the context of selecting and/or designing drugs with favorable pharmacokinetic properties. The primary site of metabolism for many drugs is the liver. Human liver microsomes contain the cytochrome P450s (CYPs), and thus represent a model system for studying drug metabolization in vitro. Enhanced stability in human liver microsomes is associated with several advantages, including increased bioavailability and longer half-life, which can enable lower and less frequent dosing of patients. Thus, enhanced stability in human liver microsomes is a favorable characteristic for compounds that are to be used for drugs.
The metabolic stability of the compounds according to the invention may be investigated as follows: The metabolic degradation of the test compound is assayed at 37°C with pooled human liver microsomes. The final incubation volume of 100 µL per time point contains TRIS buffer pH 7.6 at room temperature (0.1 M), MgCl2 (5 mM), microsomal protein (1 mg/mL) and the test compound at a final concentration of 1 µM. Following a short pre-incubation period at 37°C , the reactions are initiated by addition of beta-nicotinamide adenine dinucleotide phosphate, reduced form (NADPH, 1 mM), and terminated by transferring an aliquot into solvent after different time points. After centrifugation (10000 g, 5 min), an aliquot of the supernatant is assayed by LC-MS/MS for the amount of parent compound. The half-life (t1/2) is determined by the slope of the semi-logarithmic plot of the concentration-time profile.

[2] = biological target: T1, human orexin 2 receptor (Homo sapiens, UniProt O43614); format: cell-based
T1 sequence (O43614 1-444): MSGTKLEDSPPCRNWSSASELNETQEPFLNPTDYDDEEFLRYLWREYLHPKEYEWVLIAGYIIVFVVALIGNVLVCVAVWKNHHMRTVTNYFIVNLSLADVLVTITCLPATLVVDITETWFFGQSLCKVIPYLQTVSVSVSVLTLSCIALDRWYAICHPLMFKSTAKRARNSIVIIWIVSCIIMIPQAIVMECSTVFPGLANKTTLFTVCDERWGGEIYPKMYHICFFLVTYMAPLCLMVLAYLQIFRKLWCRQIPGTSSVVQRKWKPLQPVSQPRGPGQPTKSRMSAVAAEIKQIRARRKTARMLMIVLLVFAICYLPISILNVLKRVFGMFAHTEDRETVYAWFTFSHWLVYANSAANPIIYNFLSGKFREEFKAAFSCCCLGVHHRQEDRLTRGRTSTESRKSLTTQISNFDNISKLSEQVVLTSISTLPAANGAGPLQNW
From the text: Chem. Genomics 2009, 3, 22-32.

[3] = biological target: T2, human MDR1 P-gp (Homo sapiens, UniProt P08183); test: Assay D: efflux in MDCK cells transfected with the human MDR1 gene; format: in vitro ADME; settings: MDCK-MDR1 monolayers, pH 7.4, 37°C
T2 construct: expressed in transfected cells; host or cells: MDCK (MDCK-MDR1)
T2 sequence (P08183 whole entry): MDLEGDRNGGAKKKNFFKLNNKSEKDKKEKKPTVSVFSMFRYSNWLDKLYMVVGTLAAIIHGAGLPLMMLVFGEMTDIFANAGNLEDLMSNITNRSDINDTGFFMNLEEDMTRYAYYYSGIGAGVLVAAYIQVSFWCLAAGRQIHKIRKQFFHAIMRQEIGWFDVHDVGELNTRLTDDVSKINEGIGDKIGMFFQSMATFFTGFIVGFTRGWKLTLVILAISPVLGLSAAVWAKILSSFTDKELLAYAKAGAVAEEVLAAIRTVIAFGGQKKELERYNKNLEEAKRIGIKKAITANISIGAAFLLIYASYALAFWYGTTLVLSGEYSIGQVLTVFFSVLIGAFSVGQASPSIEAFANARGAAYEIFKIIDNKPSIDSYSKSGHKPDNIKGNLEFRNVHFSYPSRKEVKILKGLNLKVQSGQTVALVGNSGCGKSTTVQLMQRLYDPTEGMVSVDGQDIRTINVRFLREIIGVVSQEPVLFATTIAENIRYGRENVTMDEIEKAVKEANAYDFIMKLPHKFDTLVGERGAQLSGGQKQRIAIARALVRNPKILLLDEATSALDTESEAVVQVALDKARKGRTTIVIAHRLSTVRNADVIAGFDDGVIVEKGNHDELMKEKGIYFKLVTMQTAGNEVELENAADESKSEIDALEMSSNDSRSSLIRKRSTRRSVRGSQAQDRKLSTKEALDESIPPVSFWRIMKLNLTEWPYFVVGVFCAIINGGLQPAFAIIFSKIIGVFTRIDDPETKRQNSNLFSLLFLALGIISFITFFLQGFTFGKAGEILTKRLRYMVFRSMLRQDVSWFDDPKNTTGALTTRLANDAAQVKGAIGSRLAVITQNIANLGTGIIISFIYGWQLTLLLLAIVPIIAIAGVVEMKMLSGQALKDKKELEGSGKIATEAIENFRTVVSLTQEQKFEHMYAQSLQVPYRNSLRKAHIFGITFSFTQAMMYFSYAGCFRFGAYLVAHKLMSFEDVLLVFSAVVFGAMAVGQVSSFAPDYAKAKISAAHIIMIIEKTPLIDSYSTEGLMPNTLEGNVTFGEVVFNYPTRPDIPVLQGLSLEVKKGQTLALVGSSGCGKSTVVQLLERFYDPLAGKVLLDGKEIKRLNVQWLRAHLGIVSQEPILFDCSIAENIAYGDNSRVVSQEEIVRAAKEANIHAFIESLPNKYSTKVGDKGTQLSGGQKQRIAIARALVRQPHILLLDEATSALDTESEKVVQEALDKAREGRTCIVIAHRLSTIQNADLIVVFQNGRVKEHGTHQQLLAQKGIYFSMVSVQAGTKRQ
Protocol: The MDCK assay provides information on the potential of a compound to pass the blood brain barrier. Permeability measurements across polarized, confluent MDCK-MDR1 cell monolayers grown on permeable filter supports are used as an in vitro absorption model: apparent permeability coefficients (PE) of the compounds across the MDCK-MDR1 cell monolayers are measured (pH 7.4, 37°C) in apical-to-basal (AB) and basal-to-apical (BA) transport direction. The AB permeability (PEAB) represents drug absorption from the blood into the brain and the BA permeability (PEBA) drug efflux from the brain back into the blood via both, passive permeability as well as active transport mechanisms mediated by efflux and uptake transporters that are expressed on the MDCK-MDR1 cells, predominantly by the overexpressed human MDR1 P-gp. Identical or similar permeabilities in both transport directions indicate passive permeation, vectorial permeability points to additional active transport mechanisms. Higher PEBA than PEAB (PEBA/PEAB > 5) indicates the involvement of active efflux mediated by MDR1 P-gp, which might compromises the goal to achieve sufficient brain exposure. Therefore this assay provides valuable support for selection of compounds applicable for further in vivo testing. High permeability not limited by efflux at the blood brain barrier is a favourable characteristic for compounds that are to be used for drugs acting primarily in the CNS
Apparent permeability coefficients (PE) of the compounds across the MDCK-MDR1 cell monolayers are measured (pH 7.4, 37°C) in apical-to-basal (AB) and basal-to-apical (BA) transport direction. AB permeability (PEAB) represents drug absorption from the blood into the brain and BA permeability (PEBA) drug efflux from the brain back into the blood via both passive permeability as well as active transport mechanisms mediated by efflux and uptake transporters that are expressed on the MDCK-MDR1 cells, predominantly by the overexpressed human MDR1 P-gp. The compounds are assigned to permeability/absorption classes by comparison of the AB permeabilities with the AB permeabilities of reference compounds with known in vitro permeability and oral absorption in the human. Identical or similar permeabilities in both transport directions indicate passive permeation, vectorial permeability points to additional active transport mechanisms. Higher PEBA than PEAB indicates the involvement of active efflux mediated by MDR1 P-gp. Active transport is concentration- dependently saturable.
MDCK-MDR1 cells (1-2 x 10e5 cells/1 cm2 area) are seeded on filter inserts (Costar transwell polycarbonate or PET filters, 0.4 µm pore size) and cultured (DMEM) for 7 days. Subsequently, the MDR1 expression is boosted by culturing the cells with 5 mM sodium butyrate in full medium for 2 days. Compounds are dissolved in appropriate solvent (like DMSO, 1 -20 mM stock solutions). Stock solutions are diluted with HTP-4 buffer (128.13 mM NaCl, 5.36 mM KCI, 1 mM MgSO4, 1.8 mM CaCl2, 4.17 mM NaHCO3, 1.19 mM Na2HPO4 x 7H2O, 0.41 mM NaH2PO4xH2O, 15 mM HEPES, 20 mM glucose, 0.25 % BSA, pH 7.4) to prepare the transport solutions (0.1 - 300 µM compound, final DMSO <= 0.5 %). The transport solution (TL) is applied to the apical or basolateral donor side for measuring A-B or B-A permeability (3 filter replicates), respectively. The receiver side contains the same buffer as the donor side. Samples are collected at the start and end of experiment from the donor and at various time intervals for up to 2 hours also from the receiver side for concentration measurement by HPLC-MS/MS or scintillation counting. Sampled receiver volumes are replaced with fresh receiver solution.

[4] = biological target: T3, OX2R (Homo sapiens, UniProt O43614); settings: cited from earlier work; for OX2R pIC50: Table 3 of WO2016/034882; for IC50: corresponds to pIC50 of Table 3 of WO2016/034882
T3 sequence (O43614 1-444): T1 sequence (O43614 1-444)

[5] = read-out: Assay C: Human MST t1/2
[6] = read-out: Assay D:MDCK efflux ratio (BA/AB)
[7] = read-out: Data as determined in Assay C: Human MST t1/2

SMILES	half-life at 1 µM [1, 5]	Kb ([2]; 0.5 nM Orexin A)	efflux ratio [3, 6]	other results
CCN(C(=O)c1ccc(F)cc1-n1nccn1)[C@@H](C)CNc1ncc(C(F)(F)F)cn1 [Example 2]	0.717 h	64.5 nM	< 3	–
CCN(C(=O)c1ccc(F)c(F)c1-n1nccn1)[C@@H](C)CNc1ncc(C(F)(F)F)cn1 [Example 4]	1.58 h	46.9 nM	< 3	–
CCN(C(=O)c1cc(F)ccc1-n1nccn1)[C@@H](C)CNc1ncc(C(F)(F)F)cn1 [Example 5]	2 h	35.3 nM	< 3	–
Cc1nc(C(=O)N(C)CCNc2ncc(Br)cn2)c(-c2ccc(F)cc2)s1 [Example 6 in WO03/051872, reference compound]	0.133 h	–	–	Kb ([2]; 0.5 nM Orexin A concentration, read-out: Assay B: OX2R Kb): 101 nM; efflux ratio ([3]; read-out: Assay D: MDCK efflux ratio (BA/AB)): 0.8
CCN(C(=O)c1c(F)cccc1-n1nccn1)[C@@H](C)CNc1ncc(C(F)(F)F)cn1 [Example 7]	1.27 h	33.4 nM	< 3	–
CCN(C(=O)c1cc(C#N)ccc1-n1nccn1)[C@@H](C)CNc1ncc(C(F)(F)F)cn1 [Example 8]	> 2 h	33.4 nM	3 to 5	–
CCN(C(=O)c1cc(F)cnc1-n1nccn1)[C@@H](C)CNc1ncc(C(F)(F)F)cn1 [Example 10]	> 2 h	1060 nM	< 3	–
CCN(C(=O)c1cccc(F)c1-c1ncccn1)[C@@H](C)CNc1ncc(C(F)(F)F)cn1 [Example 11]	> 2 h	19.3 nM	3 to 5	–
CCN(C(=O)c1nc(C)ccc1-n1cccn1)[C@@H](C)CNc1ncc(C(F)(F)F)cn1 [Example 12]	1.08 h	129 nM	< 3	–
CCN(C(=O)c1c(F)cccc1-c1ncccn1)[C@@H](C)CNc1ncc(C(F)(F)F)cn1 [Example 13]	> 2 h	62 nM	< 3	–
C[C@@H](CNc1ccc(Cl)cn1)N(C)C(=O)c1ccccc1-c1ccccc1 [Example 14 in WO2016/034882, reference compound]	0.0333 h	–	–	–
CCN(C(=O)c1ccccc1-c1noc(C)n1)[C@@H](C)CNc1ncc(C(F)(F)F)cn1 [Example 14]	1.52 h	44 nM	< 3	–
CCN(C(=O)c1cc(F)ccc1-c1ncccn1)[C@@H](C)CNc1ncc(C(F)(F)F)cn1 [Example 15]	> 2 h	22.9 nM	< 3	–
CCN(C(=O)c1ccc(F)cc1-c1ncccn1)[C@@H](C)CNc1ncc(C(F)(F)F)cn1 [Example 16]	1.67 h	76.8 nM	< 3	–
CCN(C(=O)c1ncccc1-c1ccccc1)[C@@H](C)CNc1ncc(C(F)(F)F)cn1 [Example 19]	> 2 h	12.5 nM	< 3	–
CCN(C(=O)c1cncnc1-c1ccccc1)[C@@H](C)CNc1ncc(C(F)(F)F)cn1 [Example 20]	0.717 to 1.67 h	68 nM	< 3	–
CCN(C(=O)c1nccnc1-c1ccccc1)[C@@H](C)CNc1ncc(C(F)(F)F)cn1 [Example 21]	> 2 h	55.9 nM	< 3	–
CCN(C(=O)c1ccccc1-n1nccn1)[C@@H](C)CNc1cnc(C(F)(F)F)cn1 [Example 22]	> 2 h	7.37 nM	3 to 5	–
CCN(C(=O)c1ccc(F)cc1-c1nnc(C)o1)[C@@H](C)CNc1cnc(C(F)(F)F)cn1 [Example 23]	> 2 h	222 nM	3 to 5	–
CCN(C(=O)c1cccc(F)c1-n1nccn1)[C@@H](C)CNc1cnc(C(F)(F)F)cn1 [Example 24]	1.02 h	10 nM	3 to 5	–
CCN(C(=O)c1nc(C)ccc1-c1ncccn1)[C@@H](C)Cn1nnc(-c2ccc(F)cc2)n1 [Example 69 in WO2013/187466, reference compound]	–	–	–	half-life at 1 µM [1, 7]: 0.383 h
CCN(C(=O)c1cc(F)ccc1-c1ncccn1)[C@@H](C)Cn1nnc(-c2ccc(F)cc2)n1 [Example 70 in WO2013/187466, reference compound]	–	–	–	half-life at 1 µM [1, 7]: 0.267 h
CC[C@@H](CNc1ncc(C(F)(F)F)cn1)N(CC)C(=O)c1nc(C)ccc1-n1nccn1 [Example 73 in WO2016/034882]	0.183 h	–	–	OX2R pIC50 [4]: < 6.0; IC50 [4]: > 1000 nM
CC[C@@H](CNc1ncc(C(F)(F)F)cn1)N(C)C(=O)c1nc(C)ccc1-c1ncccn1 [Example 84 in WO2016/034882]	0.683 h	–	< 3	OX2R pIC50 [4]: 6.0; IC50 [4]: 1000 nM
